Experimental data reported in patent publication US10363298B2, “Immunomodulatory compounds” (priority 2014, dated 2019).
Read-outs that look alike come from different tables or passages of the source.

Experiments:
[1] = target: multivalent forms of VcCBM and SpCBM; assay: Surface plasmon resonance, summary statement for the multivalent forms; settings: read-out: dissociation constants, SPR
Text: Tandem-repeat multivalent protein, Vc4CBM, based on the Family 40^31 sialic acid binding domain (CBM) of the nanH gene encoding the sialidase from V. cholerae, was generated using PCR-based cloning techniques as described previously^8. Oligomerisation of the CBM domain from V. cholerae nanH sialidase, and from S. pneumoniae nanA sialidase, using the trimerisation domain from the pseudaminidase protein from Pseudomonas aeruginosa was engineered as follows: the DNA fragments encoding the CBM of V. cholerae sialidase residues 25-216, and that of S. pneumoniae nanA sialidase residues 121-305, respectively, were modified at the 5′ and 3′ termini by PCR amplification using primer pairs (Table 3) to incorporate different restriction sites to link one or two copies of the CBM unit in tandem for subsequent ligation to the gene encoding the trimerization domain from P. aeruginosa pseudaminidase residues 333-438 (PaTD). The resulting fragments were cloned either into an appropriately digested pEHISTEV vector (for VcCBM fragments) or pEGFP-HISTEV vector (for SpCBM fragments) to create constructs designated as VcCBMTD, Vc2CBMTD, SpCBMTD and Sp2CBMTD, respectively (FIG. 1). […] All constructs were propagated in E. coli DH5a cells, and constructs were verified by DNA sequencing, before transforming the expression host E. coli BL21 Gold (DE3) for protein production. […]

[2] = target: Vc4CBM (tandem-repeat multivalent protein of four sialic acid binding domains of V. cholerae NanH sialidase, residues 25-216, SEQ ID NO: 2) (Vibrio cholerae, UniProt A5F7A4); assay: Surface plasmon resonance (Biacore T-100): binding to immobilized multivalent, biotinylated α-2,3-sialyllactose-PAA; settings: mean ± s.d. of three replicates
Text: (§1) Tandem-repeat multivalent protein, Vc4CBM, based on the Family 40^31 sialic acid binding domain (CBM) of the nanH gene encoding the sialidase from V. cholerae, was generated using PCR-based cloning techniques as described previously^8. Oligomerisation of the CBM domain from V. cholerae nanH sialidase, and from S. pneumoniae nanA sialidase, using the trimerisation domain from the pseudaminidase protein from Pseudomonas aeruginosa was engineered as follows: the DNA fragments encoding the CBM of V. cholerae sialidase residues 25-216, and that of S. pneumoniae nanA sialidase residues 121-305, respectively, were modified at the 5′ and 3′ termini by PCR amplification using primer pairs (Table 3) to incorporate different restriction sites to link one or two copies of the CBM unit in tandem for subsequent ligation to the gene encoding the trimerization domain from P. aeruginosa pseudaminidase residues 333-438 (PaTD). The resulting fragments were cloned either into an appropriately digested pEHISTEV vector (for VcCBM fragments) or pEGFP-HISTEV vector (for SpCBM fragments) to create constructs designated as VcCBMTD, Vc2CBMTD, SpCBMTD and Sp2CBMTD, respectively (FIG. 1). […] All constructs were propagated in E. coli DH5a cells, and constructs were verified by DNA sequencing, before transforming the expression host E. coli BL21 Gold (DE3) for protein production.
(§2) Expression of engineered mCBMs was performed as described previously^8 with some modifications. Briefly, E. coli cells containing either His-tagged VcCBMs or GFP-His-tagged SpCBMs were lysed in a buffer containing PBS, 0.3M NaCl and 10 mM imidazole with DNAase (20 μg/ml) and protease (minus EDTA) inhibitor tablets (Roche). Clarified lysates were applied onto a HisTrap HP column, pre-charged with nickel (GE Healthcare) before elution of histidine-tagged CBMs using PBS containing 0.3 M NaCl and 250 mM imidazole. Removal of tag, unless otherwise stated, was performed by digestion in situ with TEV protease overnight before re-applying material to the nickel column. All mCBM proteins were further purified using size exclusion chromatography with a HiPrep 16/60 Sephacryl S200HR column (GE Healthcare) in PBS before using either a Vivapure S Maxi H (VcCBMs) or Q Maxi H (SpCBMs) column (Sartorius) to remove endotoxins. GFP-tagged proteins were also subjected to affinity chromatography and size exclusion chromatography as described above. […] Protein purity and size were verified by 12% SDS polyacrylamide gel electrophoresis and mass spectrometry. Purified mCBMs binding to sialic acid was verified by surface plasmon resonance (Biacore T-100, University of Edinburgh) using a streptavidin-coated biosensor chip immobilized with a multivalent, biotinylated α-2,3-sialyllactose-PAA (Glycotech) (Table 1).

[3] = target: VcCBMTD (CBM of V. cholerae NanH sialidase, residues 25-216, SEQ ID NO: 2, fused to trimerisation domain of P. aeruginosa pseudaminidase, residues 333-438, SEQ ID NO: 6) (Vibrio cholerae, UniProt A5F7A4); assay: as above; settings: mean ± s.d. of three replicates
Text: as §1, §2

[4] = target: Vc2CBMTD (two tandem CBMs of V. cholerae NanH sialidase, residues 25-216, SEQ ID NO: 2, fused to trimerisation domain of P. aeruginosa pseudaminidase, residues 333-438, SEQ ID NO: 6) (Vibrio cholerae serotype O1, UniProt A5F7A4); assay: as above; settings: mean ± s.d. of three replicates
Text: as §1, §2

[5] = target: influenza virus haemagglutinin (HA) monomer (Influenza A virus, UniProt P03437); settings: read-out: affinity for its receptor; cited from earlier work
[6] = read-out: ka (association ('on') rate constant), 15 °C
[7] = read-out: ka (association ('on') rate constant), 25 °C
[8] = read-out: ka (association ('on') rate constant), 37 °C
[9] = read-out: kd (dissociation ('off') rate constant), 15 °C
[10] = read-out: kd (dissociation ('off') rate constant), 25 °C
[11] = read-out: kd (dissociation ('off') rate constant), 37 °C

Molecule	Kd [1] [nM]	kon [2, 6] [M⁻¹ s⁻¹]	kon [2, 7] [M⁻¹ s⁻¹]	kon [2, 8] [M⁻¹ s⁻¹]	koff [2, 9] [s⁻¹]	koff [2, 10] [s⁻¹]	koff [2, 11] [s⁻¹]	kon [3, 6] [M⁻¹ s⁻¹]	kon [3, 7] [M⁻¹ s⁻¹]	kon [3, 8] [M⁻¹ s⁻¹]	koff [3, 9] [s⁻¹]	koff [3, 10] [s⁻¹]	koff [3, 11] [s⁻¹]	kon [4, 6] [M⁻¹ s⁻¹]	kon [4, 7] [M⁻¹ s⁻¹]	kon [4, 8] [M⁻¹ s⁻¹]	koff [4, 9] [s⁻¹]	koff [4, 10] [s⁻¹]	koff [4, 11] [s⁻¹]	Kd [5] [mM]
CC(=O)N[C@H]1[C@H]([C@H](O)[C@H](O)CO)O[C@@](O[C@H]2[C@@H](O)[C@@H](CO)O[C@@H](O[C@H]3[C@H](O)[C@@H](O)C(O)O[C@@H]3CO)[C@@H]2O)(C(=O)O)C[C@@H]1O (stereo partly drawn) [α-2,3-sialyllactose]	< 1	540000 ± 10000	3.56e+06 ± 20000	2.98e+06 ± 20000	0.00051 ± 1e-05	0.0016 ± 1e-05	0.00541 ± 4e-05	2.55e+06 ± 20000	7.24e+06 ± 60000	2.07e+07 ± 540000	0.0042 ± 2e-05	0.0124 ± 0.0001	0.107	1.83e+06 ± 10000	1.73e+06 ± 10000	8.45e+06 ± 50000	0.00033 ± 1e-05	0.0007 ± 1e-05	0.00207 ± 1e-05	
sialic acid																				~2.5
